Results taken from patent US20250034586A1, “METHOD FOR EDITING BANANA GENES” (Tropic Biosciences UK Limited, priority 2021, published 2025).

Test system: ALS1 or ALS2
Test: Genotyping of CSF-selected samples (PBE experiments)
Format: cell-based, banana
Conditions: across all experiments, embryos and shoots
From the text: gDNA from embryos and plantlets was extracted and qPCR was used to test for the presence of integrated tDNA in the plant genome. Three independent qPCRs were run on each sample with different sets of primers (listed below) spanning the tDNA, ranging from the left to right border. An additional qPCR was run on an endogenous banana gene (actin) for normalisation of Ct values. All qPCRs were run on the LightCycler® 96 System (Roche) using PowerUp™ SYBR® Green Master Mix (Thermo Fisher Scientific™).
For edit validation, amplicons for each target gene (als1, als2, ppo2, aco1) were made using Q5® High-Fidelity 2× Master Mix (New England Biolabs, NEB) using reaction settings listed below. PCR products were purified using Monarch® PCR & DNA Cleanup Kit (NEB) according to manufacturer's specifications. The amplicons were after validated by Sanger sequencing.

SMILES: COc1nc(C)nc(NC(=O)NS(=O)(=O)c2ccccc2Cl)n1 [CSF, chlorsulfuron]
- Non-transgenic rate in CSF selected samples: > 10%
